Earlier results, collected in US20120129799A1, “STABLE COMPOSITION OF READY-TO-USE GEMCITABINE INJECTION” (ASTRON RESEARCH LIMITED, priority 2009, published 2012).
“Also recorded” adds a separate entry of the source.

Legend:
[1] = higher pH (5.0 to 9.0)

Nc1ccn([C@@H]2O[C@H](CO)[C@@H](O)C2(F)F)c(=O)n1 [Gemcitabine, 1-(2-oxo-4-amino-1,2-dihydropyrimidin-1-yl)-2-deoxy-2,2-difluororibose]
degradation products obtained (aqueous solution, pH 3.2 (sodium acetate), thermally stressed conditions): four significant degradation products
chemical stability of aqueous solution (aqueous solution, pH of approximately 3.0): not chemically stable
stability in aqueous solution (higher pH (5.0 to 9.0)): remains stable
stability (lower pH): poor stability
aqueous solubility [1]: low aqueous solubility; also recorded: very low solubility
